# Assay results published in patent publication US20050020615A1, “CCI-779 lyophilized formulations” (Wyeth, priority 2003, published 2005).
# Legend:
# Solubility in water = assay type: physicochemical
# orthotopic glioma = conditions: nude mice; cited from earlier work
# [1] = Chemical stability of CCI-779 in solution (pH, chelating agent); assay type: physicochemical; conditions: citric acid at less than 0.01% w/v
# From the text: Desirably, when a significant amount of water (e.g,. 40% v/v or greater) is present in the solvent blend of the pre-lyophilized solution, it is advantageous to adjust the pH to 4 to 6 as this is the range of maximum stability for CCI-779. In one embodiment, the pH is adjusted to a pH of about 5.5.
# In some embodiments, components with chelating activity are included in the formulations of the invention as the sole “antioxidant component”. Typically, such metal-binding components, when acting as chelating agents are used in the lower end of the range of concentrations for the antioxidant component provided herein. […] Additionally, such chelating agents may be used in combination with other antioxidants as part of the antioxidant component of the invention. For example, an acceptable formulation may contain both citric acid and d,l-α-tocopherol. Optimal concentrations for the selected antioxidant(s) can be readily determined by one of skill in the art, based upon the information provided herein. All percentages are expressed a % w/v in the pre-lyophilized solution.
# Desirably, the pre-lyophilization solution has a pH in the range of 4 to 6, which has been found by the inventor to improve the stability of CCI-779. Depending upon the components of the pre-lyophilization solution, the pH can be adjusted using any suitable inorganic or organic acid, or base, as needed. […]
# [2] = tested on: human tumor xenografts of diverse histological types; conditions: nude mice; cited from earlier work
# [3] = tested on: histologically diverse tumor cells; conditions: in vitro; cited from earlier work
# [4] = tested on: human glioblastoma cell line; conditions: in vitro, platelet-derived growth factor; cited from earlier work
smiles,measurement,setting,value
"CO[C@H]1C[C@@H]2CC[C@@H](C)[C@@](O)(O2)C(=O)C(=O)N2CCCC[C@H]2C(=O)O[C@H]([C@H](C)C[C@@H]2CC[C@@H](OC(=O)C(C)(CO)CO)[C@H](OC)C2)CC(=O)[C@H](C)/C=C(\C)[C@@H](O)[C@@H](OC)C(=O)[C@H](C)C[C@H](C)/C=C/C=C/C=C/1C [CCI-779, rapamycin 42-ester with 3-hydroxy-2-(hydroxymethyl)-2-methylpropionic acid]",solubility in water,Solubility in water,poor solubility in water
same,activity in orthotopic glioma model,orthotopic glioma,active
same,effect of citric acid on stability of CCI-779,[1],enhanced the stability
same,activity against xenografts,[2],has activity
same,growth of tumor cells,[3],inhibit the growth
same,growth factor-induced stimulation of cells,[4],markedly suppressed
